For this series, the system named is McpC ligand-binding domain (Salmonella Typhimurium SL1344). As to the kind of experiment: protein melting temperature (Tm) in presence of compound (degrees C); higher = more thermal stabilisation (possible ligand binding). The conditions noted are these: compound stock concentration: 10-20 mM, 2 uL in 10 uL reaction.

Structures are written as SMILES. ± gives the standard deviation of the averaged measurements.

In the case of `O=C[C@@H](O)[C@H](O[C@@H]1O[C@H](CO)[C@H](O)[C@H](O)[C@H]1O)[C@H](O)CO` [3-O-b-D-Galactopyranosyl-D-Arabinose], for the setting “Biolog plate: PM02A”, the protein melting temperature was 44.5.

Turning to `NCCO` [2-Aminoethanol], where the note is “Biolog plate: PM01”, the protein melting temperature amounted to 44.3.

Turning to `OC[C@H]1O[C@@H](Oc2ccc(O)cc2)[C@H](O)[C@@H](O)[C@@H]1O` [Arbutin], the protein melting temperature (Biolog plate: PM02A) is 43.7.

On to `O=C(O)COP(=O)(O)O` [Phospho-Glycolic acid], for which, for the setting “Biolog plate: PM04A”, the protein melting temperature was 43.5.

In the case of `O=C(O)CCCO` [g-Hydroxybutyric acid], the protein melting temperature (Biolog plate: PM02A) was determined as 44.2.

For the molecule `N[C@@H](CSCSC[C@H](N)C(=O)O)C(=O)O` [L-Djenkolic acid], the protein melting temperature (Biolog plate: PM04A) was 44.6.

For the molecule `N[C@@H](CS)C(=O)NCC(=O)O` [Cys-Gly], the protein melting temperature (Biolog plate: PM04A) turned out to be 42.9.

As for `O=C(CO)[C@@H](O[C@H]1O[C@H](CO)[C@@H](O)[C@H](O)[C@H]1O)[C@H](O)[C@H](O)CO` [Turanose], the protein melting temperature (Biolog plate: PM02A) was 44.1.

With `NC(=O)NC(N)=O` [Biuret], the protein melting temperature (Biolog plate: PM03B) was 44.2.

Take `NCCS(=O)O` [Hypotaurine]: the protein melting temperature (Biolog plate: PM04A) stood at 44.5.

Take `C[C@H](CCC(=O)NCCS(=O)(=O)O)[C@H]1CC[C@H]2[C@@H]3[C@H](O)C[C@@H]4C[C@H](O)CC[C@]4(C)[C@H]3C[C@H](O)[C@]12C` [Taurocholic acid]: the protein melting temperature (Biolog plate: PM04A) was 44.2.

As to `NC=O` [Formamide], the protein melting temperature (Biolog plate: PM03B) came out at 45.6.

Consider `OC[C@@H](O)[C@@H](O)[C@H](O)[C@H](O)CO` [D-Mannitol], for which the protein melting temperature (Biolog plate: PM01) was 44.7.

Regarding `C/C(=C/C(=O)O)C(=O)O` [Citraconic acid], the protein melting temperature (Biolog plate: PM02A) came out at 43.7.

Consider `OC[C@H]1O[C@H](OC[C@H]2O[C@H](OC[C@H]3O[C@H](O[C@]4(CO)O[C@H](CO)[C@@H](O)[C@@H]4O)[C@H](O)[C@@H](O)[C@@H]3O)[C@H](O)[C@@H](O)[C@H]2O)[C@H](O)[C@@H](O)[C@H]1O` [Stachyose], for which the protein melting temperature (Biolog plate: PM02A) was determined as 44.5.

Consider `N[C@@H](CCO)C(=O)O` [L-Homoserine], for which the protein melting temperature amounted to 44.7 (Biolog plate: PM02A) and 44.8 (Biolog plate: PM03B).

On to `Cc1ncc(CO)c(CO)c1O` [Pyridoxine], for which the protein melting temperature (Biolog plate: PM05) is 43.8.

For `O[C@@H]1[C@@H](O)[C@@H](O)CO[C@H]1O` [L-Arabinose], the protein melting temperature (Biolog plate: PM01) is 44.5.

`CC(=O)N[C@H]1C(O)O[C@H](CO)[C@H](O)[C@@H]1O` (stereo partly drawn) [N-Acetyl-D-Galactosamine]: the protein melting temperature is, setting by setting: (Biolog plate: PM02A) 44.6; (Biolog plate: PM03B) 44.6.

Consider `C[C@H](N)C(=O)N[C@@H](CCC(N)=O)C(=O)O` [Ala-Gln], for which the protein melting temperature (Biolog plate: PM03B) came out at 45.1.

Turning to `C[C@H](N)C(=O)O` [L-Alanine], the protein melting temperature came to 44.8 (Biolog plate: PM01), 45.6 (Biolog plate: PM03B) and 44.9 (Biolog plate: PM05).

With `O=P(O)(O)OC[C@H](O)CO` (racemic) [DL-a-Glycerol Phosphate], the protein melting temperature (Biolog plate: PM01) turned out to be 44.6 and the protein melting temperature (Biolog plate: PM04A) was determined as 44.4.

In the case of `CN(CC(=O)O)C(=N)NP(=O)(O)O` [Phosphocreatine], the protein melting temperature (Biolog plate: PM04A) was found to be 44.3.

`NCCCC(=O)O` [g-Amino-N-Butyric acid]: the protein melting temperature is 44.4 (Biolog plate: PM02A) and 44 (Biolog plate: PM03B).

With `Oc1nc(O)c2nc(O)[nH]c2n1` [Uric acid], the protein melting temperature (Biolog plate: PM03B) is 44.4.

On to `C[N+](C)(C)CCOP(=O)(O)O` [Phosphoryl Choline], for which the protein melting temperature (Biolog plate: PM04A) came to 43.7.

`NC(=O)CCCCC1CCSS1` (racemic) [DL-Lipoamide]: for the setting “Biolog plate: PM04A”, the protein melting temperature was 44.4.

As to `Cc1cn([C@H]2C[C@H](O)[C@@H](COP(=O)(O)O)O2)c(=O)[nH]c1=O` [Thymidine 5`-Monophosphate], the protein melting temperature (Biolog plate: PM04A) turned out to be 43.7.

For `CCN` [Ethylamine], the protein melting temperature (Biolog plate: PM03B) turned out to be 44.7.

Take `OC[C@H]1O[C@H](OC[C@H]2O[C@H](O[C@]3(CO)O[C@H](CO)[C@@H](O)[C@@H]3O)[C@H](O)[C@@H](O)[C@@H]2O)[C@H](O)[C@@H](O)[C@H]1O` [D-Raffinose]: the protein melting temperature (Biolog plate: PM02A) was determined as 44.4.

For `OC[C@@H](O)[C@@H](O)CO` [i-Erythritol], under “Biolog plate: PM02A”, the protein melting temperature came out at 43.7.

Regarding `CSCCC(NC(C)=O)C(=O)O` (racemic) [N-Acetyl-D,L-Methionine], under “Biolog plate: PM04A”, the protein melting temperature was found to be 43.7.

`NCC(=O)O` [Glycine]: the protein melting temperature runs as follows: (Biolog plate: PM02A) 44.4; (Biolog plate: PM03B) 44.8; (Biolog plate: PM05) 43.9.

Regarding `CC(O)C(N)=O` (racemic) [DL-Lactamide], the protein melting temperature (Biolog plate: PM03B) is 45.6.

Turning to `Nc1[nH]cnc2ncnc1-2` [Adenine], the protein melting temperature is, setting by setting: (Biolog plate: PM03B) 45.2; (Biolog plate: PM05) 44.1.

Take `N[C@@H](Cc1ccccc1)C(=O)O` [L-Phenylalanine]: the protein melting temperature runs as follows: (Biolog plate: PM02A) 44.5; (Biolog plate: PM03B) 44.8; (Biolog plate: PM05) 43.8.

Take `NCCC[C@H](N)C(=O)O` [L-Ornithine]: the protein melting temperature reads like this: (Biolog plate: PM02A) 44.4; (Biolog plate: PM03B) 44.4; (Biolog plate: PM05) 44.7.

With `CC(O)C(C)O` (stereo not given) [2,3-Butanediol], the protein melting temperature (Biolog plate: PM02A) turned out to be 44.2.

Turning to `Nc1nc2c(ncn2[C@@H]2O[C@H](COP(=O)(O)O)[C@@H](O)[C@H]2O)c(=O)[nH]1` [Guanosine 5`-Monophosphate], for the setting “Biolog plate: PM04A”, the protein melting temperature is 43.9.

For the molecule `C[C@@H](O)[C@H](O)[C@H](O)[C@@H](O)C=O` [D-Fucose], the protein melting temperature (Biolog plate: PM02A) worked out at 43.3.

Turning to `OC[C@@H](O)[C@H](O)[C@H](O)[C@@H](O)CO` [Dulcitol], for the setting “Biolog plate: PM01”, the protein melting temperature was determined as 44.6.

For the molecule `O=C1NC(=O)C(=O)C(=O)N1` [Alloxan], where the note is “Biolog plate: PM03B”, the protein melting temperature is 44.3.

Take `N[C@@H](Cc1ccc(OP(=O)(O)O)cc1)C(=O)O` [O-Phospho-L-Tyrosine]: under “Biolog plate: PM04A”, the protein melting temperature stood at 43.7.

Take `NCCP(=O)(O)O` [2-Aminoethyl Phosphonic acid]: for the setting “Biolog plate: PM04A”, the protein melting temperature amounted to 43.6.

Regarding `Nc1ccn([C@@H]2O[C@H](CO)[C@@H](OP(=O)(O)O)[C@H]2O)c(=O)n1` [Cytidine 3`-Monophosphate], for the setting “Biolog plate: PM04A”, the protein melting temperature came to 45.4.

Turning to `O=C(O)CCCCCCCCC(=O)O` [Sebacic acid], the protein melting temperature (Biolog plate: PM02A) turned out to be 44.8.

With `O=C(O)c1cc(C(=O)O)c2c(n1)C(=O)C(=O)c1cc(C(=O)O)[nH]c1-2` [Pyrrolo-Quinoline Quinone], the protein melting temperature (Biolog plate: PM05) turned out to be 43.

As to `NC(=O)C[C@@H](N)C(=O)O` [D-Asparagine], for the setting “Biolog plate: PM03B”, the protein melting temperature amounted to 44.8.

On to `OP(O)(=S)S` [Dithiophosphate], for which the protein melting temperature (Biolog plate: PM04A) amounted to 43.6 ± 0.59.

Turning to `CO[C@@H]1OC[C@@H](O)[C@H](O)[C@H]1O` [b-Methyl-D-Xyloside], the protein melting temperature (Biolog plate: PM02A) turned out to be 44.2.

Consider `NC(=O)C[C@H](N)C(=O)O` [L-Asparagine], for which the protein melting temperature turned out to be 44.4 (Biolog plate: PM01), 45.7 (Biolog plate: PM03B) and 44.5 (Biolog plate: PM05).

On to `Nc1nc2c(ncn2[C@H]2C[C@H](O)[C@@H](CO)O2)c(=O)[nH]1` [2`-Deoxyguanosine], for which, where the note is “Biolog plate: PM05”, the protein melting temperature turned out to be 43.7.

As to `O=C(O)[C@@H](O)[C@H](O)[C@H](O)[C@@H](O)C(=O)O` [Mucic acid], the protein melting temperature (Biolog plate: PM01) is 43.7.

Regarding `N[C@@H](CS(=O)O)C(=O)O` [L-Cysteine Sulfinic acid], under “Biolog plate: PM04A”, the protein melting temperature came out at 43.

Take `OC[C@H]1O[C@@H](n2cnc3c(O)nc(O)nc32)[C@H](O)[C@@H]1O` [Xanthosine]: for the setting “Biolog plate: PM03B”, the protein melting temperature worked out at 44.3.

Regarding `O=C(O)C[C@@H](O)C(=O)O` [D-Malic acid], where the note is “Biolog plate: PM01”, the protein melting temperature is 43.6.

As for `OC[C@@H](O)C(O)[C@H](O)CO` [D-Arabitol], the protein melting temperature (Biolog plate: PM02A) stood at 44.4.

Regarding `NC(=O)[C@H]1O[C@@H](O)[C@H](O)[C@@H](O)[C@@H]1O` [Glucuronamide], the protein melting temperature runs as follows: (Biolog plate: PM01) 44.9; (Biolog plate: PM03B) 45.7.

With `OC[C@H]1O[C@@H]2O[C@H]3[C@H](O)[C@@H](O)[C@@H](O[C@H]4[C@H](O)[C@@H](O)[C@@H](O[C@H]5[C@H](O)[C@@H](O)[C@@H](O[C@H]6[C@H](O)[C@@H](O)[C@@H](O[C@H]7[C@H](O)[C@@H](O)[C@@H](O[C@H]8[C@H](O)[C@@H](O)[C@@H](O[C@H]1[C@H](O)[C@H]2O)O[C@@H]8CO)O[C@@H]7CO)O[C@@H]6CO)O[C@@H]5CO)O[C@@H]4CO)O[C@@H]3CO` [b-Cyclodextrin], the protein melting temperature (Biolog plate: PM02A) worked out at 45.4.

For `O=c1ccn([C@@H]2O[C@H](CO)[C@@H](O)[C@H]2OP(=O)(O)O)c(=O)[nH]1` [Uridine 2`-Monophosphate], the protein melting temperature (Biolog plate: PM04A) turned out to be 43.8.

As to `C[N+](C)(C)CC(O)CC(=O)[O-]` (racemic) [D,L-Carnitine], where the note is “Biolog plate: PM02A”, the protein melting temperature was 44.4.

For the molecule `N[C@@H](CCC(=O)O)C(=O)O` [L-Glutamic acid], the protein melting temperature turned out to be 44.2 (Biolog plate: PM01), 44.8 (Biolog plate: PM03B) and 44.2 (Biolog plate: PM05).

Consider `O=C(O)C(CO)OP(=O)(O)O` [D-2-Phospho-Glyceric acid], for which the protein melting temperature (Biolog plate: PM04A) turned out to be 44.1.

As for `N[C@@H](Cc1c[nH]cn1)C(=O)O` [L-Histidine], the protein melting temperature came out at 44.7 (Biolog plate: PM02A), 44.8 (Biolog plate: PM03B) and 44.6 (Biolog plate: PM05).

Turning to `NCCCC[C@@H](N)C(=O)O` [D-Lysine], the protein melting temperature (Biolog plate: PM03B) is 44.3.

In the case of `Nc1nc2[nH]cnc2c(=O)[nH]1` [Guanine], the protein melting temperature by setting is: (Biolog plate: PM03B) 44.7; (Biolog plate: PM05) 44.4.

`N[C@H]1CCOC1=O` [L-Homoserine Lactone]: the protein melting temperature (Biolog plate: PM05) was determined as 44.5.

For the molecule `O[C@@H]1[C@H](O)[C@H](O)CO[C@H]1O` [D-Ribose], the protein melting temperature (Biolog plate: PM01) was 44.2.

With `NC(=O)OP(=O)(O)O` [Carbamyl Phosphate], the protein melting temperature (Biolog plate: PM04A) came to 44.7.

Source of the values: the supplement of paper PMC7806825.
